Measured values published in patent publication US11213510B2, “Thioindirubins” (City of Hope, priority 2017, dated 2022).
Read-outs that look alike come from different tables or passages of the source.

Tests used:
Assay type in all cases: cell-based
[1] = test system: DU145 prostate cancer cell line; assay: MTS cell viability assay, DU145; details: for Cell viability (% control) DU145 1 μM / Cell viability (% control) DU145 10 μM / Cell viability at 10 μM (% control) DU145: 48 h; for Cell viability (% control) DU145 1 μM / Cell viability (% control) DU145 10 μM / IC50: MTS; for Cell viability at 10 μM (% control) DU145: MTS (Table 2); for IC50: DU145, 48 h, read-out: IC50 values (μM) against prostate cancer and melanoma DU145 (prostate cancer)
Source text: (§1) To determine if novel synthetic thioindirubins have antitumor activities, we performed an MTS cell viability assay. Initially, we screened them at […] final concentration with A2058 melanoma and DU145 prostate cancer cell lines. Then, compound 9b and compound 7e were selected to determine IC50 values against prostate cancer, melanoma and lung cancer cells, including DU145, A2058, A549, H513, H2461, H358, DMS114, H2596, DMS273, H69, H526 and DMS114 cell lines. For the viability assay, 5000 cells/well were seeded in 96-well plates, incubated overnight at 37° C. in 5% CO2 and then exposed to […] of compounds or in a dose-dependent manner for 48 h. After 48 h treatment with compounds, MTS dye (20 μL/well) was added to 96-well plates. Viable cell numbers were determined by tetrazolium conversion to its formazan dye. Absorbance was measured at 490 nm using the BMG LABTECH plate reader. Dimethyl sulfoxide (DMSO) was used as the vehicle control. Each experiment was conducted in triplicate. IC50 values were determined using CalcuSyn software (Biosoft).

A2058 melanoma cell line = assay: MTS cell viability assay, A2058; details: for Cell viability (% control) A2058 1 μM / Cell viability (% control) A2058 10 μM / Cell viability at 10 μM (% control) A2058: 48 h; for Cell viability (% control) A2058 1 μM / Cell viability (% control) A2058 10 μM / IC50: MTS; for Cell viability at 10 μM (% control) A2058: MTS (Table 2); for IC50: A2058, 48 h, read-out: IC50 values (μM) against prostate cancer and melanoma A2058 (melanoma)
Source text: as §1

[2] = test system: lung cancer, prostate cancer and melanoma cell lines; assay: MTS cell viability assay, cancer cell line panel (summary statement); details: some cell lines, not specified; read-out: IC50 against some cell lines (antitumor activities)
Description: IC50 values (μM) of compound 9b were determined using lung cancer cell lines including non-small lung cancer cell lines (Table 3: A549, H513, H2461, H358, ad H2596) and small lung cancer cell lines (Table 4: DMS273, H69, H526, and DMS114), prostate cancer (Table 5: DU145), melanoma (Table 5: A2058).
as §1

[3] = test system: H358 non-small lung cancer cell line; assay: MTS cell viability assay, H358; details: read-out: IC50 values (μM) against non-small lung cancer H358
Source text: as §1

[4] = test system: H2596 non-small lung cancer cell line; assay: MTS cell viability assay, H2596; details: H2596, 48 h, read-out: IC50 values (μM) against non-small lung cancer H2596
Source text: as §1

[5] = test system: H526 small lung cancer cell line; assay: MTS cell viability assay, H526; details: read-out: IC50 values (μM) against small lung cancer H526
Source text: as §1

[6] = test system: H69 small lung cancer cell line; assay: MTS cell viability assay, H69; details: H69, 48 h, read-out: IC50 values (μM) against small lung cancer H69
Source text: as §1

[7] = test system: H513 non-small lung cancer cell line; assay: MTS cell viability assay, H513; details: H513, 48 h, read-out: IC50 values (μM) against non-small lung cancer H513
Source text: as §1

[8] = test system: H2461 non-small lung cancer cell line; assay: MTS cell viability assay, H2461; details: H2461, 48 h, read-out: IC50 values (μM) against non-small lung cancer H2461
Source text: as §1

[9] = test system: DMS273 small lung cancer cell line; assay: MTS cell viability assay, DMS273; details: read-out: IC50 values (μM) against small lung cancer DMS273
Source text: as §1

[10] = test system: A549 non-small lung cancer cell line; assay: MTS cell viability assay, A549; details: A549, 48 h, read-out: IC50 values (μM) against non-small lung cancer A549
Source text: as §1

[11] = test system: DMS114 small lung cancer cell line; assay: MTS cell viability assay, DMS114; details: read-out: IC50 values (μM) against small lung cancer DMS114
Source text: as §1

Row | Compound | Cell viability (% control) DU145 1 μM [1] [% control] | Cell viability (% control) DU145 10 μM ([1]; DU145, 10 μM) [% control] | Cell viability (% control) A2058 1 μM (A2058 melanoma cell line) [% control] | Cell viability (% control) A2058 10 μM (A2058 melanoma cell line; A2058, 10 μM) [% control] | other results
1 | N#Cc1ccc2c(c1)C(=N\O)/C(=C1/C(=O)Nc3ccccc31)S2 [Compound 7d, (2′Z,3′E)-5′-Cyanothioindirubin-3′-oxime] | >100 | 93 | 89 | 99 | –
2 | Cc1ccc2c(c1)C(=N\O)/C(=C1/C(=O)Nc3ccccc31)S2 [Compound 7g, (2′Z,3′E)-5′-Methylthioindirubin-3′-oxime] | 88 | 79 | 84 | 88 | –
3 | COC(=O)c1ccc2c(c1)NC(=C1\C(=O)Sc3ccccc31)/C2=N/O [Compound 7f, (2′Z,3′E)-6′-(Methoxycarbonyl)thioindirubin-3′-oxime] | >100 | >100 | 92 | >100 | –
4 | O=C1Nc2ccccc2/C1=C1/Sc2ccccc2C1=O [Compound 6a, (2′Z)-Thioindirubin] | >100 | 90 | 99 | 77 | –
5 | COC(=O)c1ccc2c(c1)C(=N\OCCN1CCOCC1)/C(=C1/C(=O)Nc3ccccc31)S2 [Compound 9c, (2′Z,3′E)-5′-(Methoxycarbonyl)thioindirubin-3′-[O-(2-(morpholino)ethyl)]oxime] | – | – | – | – | Cell viability at 10 μM (% control) DU145 ([1]; DU145, 10 μM): 101 % control; Cell viability at 10 μM (% control) A2058 (A2058 melanoma cell line; A2058, 10 μM): 70 % control
6 | O=C1Sc2ccccc2/C1=C1/Nc2ccc(Br)cc2C1=O [Compound 6b, (2′Z)-5′-Bromothioindirubin] | >100 | >100 | 97 | 100 | –
7 | COC(=O)c1ccc2c(c1)C(=O)/C(=C1/C(=O)Sc3ccccc31)N2 [Compound 6e, (2′Z)-5′-(Methoxycarbonyl)thioindirubin] | >100 | >100 | 92 | 94 | –
8 | O=C1Sc2ccccc2/C1=C1/Nc2cc(Cl)ccc2C1=O [Compound 6c, (2′Z)-6′-Chlorothioindirubin] | 80 | 82 | 84 | 96 | –
9 | O=C1Nc2ccccc2/C1=C1/Sc2ccccc2/C1=N\OCCN1CCNCC1 [Compound 9a, (2′Z,3′E)-Thioindirubin-3′-[O-(2-(piperazin-1-yl)ethyl)]oxime] | – | – | – | – | Cell viability at 10 μM (% control) DU145 ([1]; DU145, 10 μM): 82 % control; Cell viability at 10 μM (% control) A2058 (A2058 melanoma cell line; A2058, 10 μM): 91 % control
10 | Cc1ccc2c(c1)C(=O)/C(=C1/C(=O)Nc3ccccc31)S2 [Compound 6g, (2′Z)-5′-Methylthioindirubin] | 94 | >100 | >100 | 97 | –
11 | COC(=O)c1ccc2c(c1)S/C(=C1\C(=O)Nc3ccccc31)C2=O [Compound 6f, (2′Z)-6′-(Methoxycarbonyl)thioindirubin] | 99 | 93 | 93 | >100 | –
12 | COC(=O)c1ccc2c(c1)C(=N\OCCN1CCNCC1)/C(=C1/C(=O)Sc3ccccc31)N2 [Compound 9b, (2′Z,3′E)-5′-(Methoxycarbonyl)thioindirubin-3′-[O-(2-(piperazin-1-yl)ethyl)]oxime] | – | – | – | – | viabilities of these cells at 10 μM concentration (DU145), in words ([1]; DU145, 10 μM): extremely reduced viabilities; Cell viability at 10 μM (% control) DU145 ([1]; DU145, 10 μM): 17 % control; IC50 ([1]; Homo sapiens, DU-145): 2.53 µM; IC50 [2]: ~1 µM; IC50 ([3]; Homo sapiens, NCI-H358, H358, 48 h): 2.4 µM; IC50 [4]: 1.02 µM; IC50 ([5]; Homo sapiens, NCI-H526, H526, 48 h): 1.7 µM; IC50 [6]: 0.78 µM; IC50 [7]: 1.6 µM; IC50 [8]: 1 µM; IC50 ([9]; Homo sapiens, DMS-273, DMS273, 48 h): 6.1 µM; viabilities of these cells at 10 μM concentration (A2058), in words (A2058 melanoma cell line; A2058, 10 μM): extremely reduced viabilities; Cell viability at 10 μM (% control) A2058 (A2058 melanoma cell line; A2058, 10 μM): 8 % control; IC50 (A2058 melanoma cell line; Homo sapiens): 1.07 µM; IC50 ([10]; Homo sapiens): 4.6 µM; IC50 ([11]; Homo sapiens, DMS-114, DMS114, 48 h): 1.13 µM
13 | N#Cc1ccc2c(c1)C(=O)/C(=C1/C(=O)Sc3ccccc31)N2 [Compound 6d, (2′Z)-5′-Cyanothioindirubin] | >100 | 95 | 95 | 87 | –
14 | O=C1Sc2ccccc2/C1=C1/Nc2cc(Cl)ccc2/C1=N\O [Compound 7c, (2′Z,3′E)-6′-Chlorothioindirubin-3′-oxime] | >100 | 33 | 86 | 27 | –
15 | COC(=O)c1ccc2c(c1)C(=N\O)/C(=C1/C(=O)Nc3ccccc31)S2 [Compound 7e, (2′Z,3′E)-5′-(Methoxycarbonyl)thioindirubin-3′-oxime] | >100 | 88 | 90 | 68 | IC50 [1]: > 10 µM; IC50 ([3]; H358, 48 h): 7.7 µM; IC50 [4]: > 10 µM; IC50 ([5]; H526, 48 h): > 10 µM; IC50 [6]: > 10 µM; IC50 [7]: > 10 µM; IC50 [8]: > 10 µM; IC50 ([9]; DMS273, 48 h): > 10 µM; IC50 (A2058 melanoma cell line): > 10 µM; IC50 [10]: > 10 µM; IC50 ([11]; DMS114, 48 h): > 10 µM
